For data set [1], the target named is T1, Muscarinic acetylcholine receptor M4 (Homo sapiens, UniProt P08173).
T1 sequence (P08173 whole entry): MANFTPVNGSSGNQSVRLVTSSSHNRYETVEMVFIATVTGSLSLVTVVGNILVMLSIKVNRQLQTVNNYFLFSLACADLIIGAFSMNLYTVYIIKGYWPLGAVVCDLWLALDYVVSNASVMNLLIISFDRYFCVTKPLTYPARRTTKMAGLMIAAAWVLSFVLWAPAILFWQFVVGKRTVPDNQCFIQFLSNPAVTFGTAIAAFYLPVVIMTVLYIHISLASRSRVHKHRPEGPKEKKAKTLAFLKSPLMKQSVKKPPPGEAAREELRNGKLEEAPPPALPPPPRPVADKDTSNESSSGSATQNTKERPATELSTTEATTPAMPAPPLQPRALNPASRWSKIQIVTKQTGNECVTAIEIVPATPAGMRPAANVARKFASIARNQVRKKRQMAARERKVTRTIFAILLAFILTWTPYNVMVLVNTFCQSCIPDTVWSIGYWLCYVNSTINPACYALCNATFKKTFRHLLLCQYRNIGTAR
In words: Positive allosteric modulation of human M4 receptor expressed in CHO cells co-expressing Gqi5 assessed as increase in acetylcholine-induced calcium mobilization. In kind it is functional, cell-based. (A change in cytosolic calcium serves as a functional read-out for many receptors and channels.)

Data set [2] concerns the target T2, Muscarinic acetylcholine receptor M4 (Homo sapiens) (UniProt P08173).
T2 sequence (whole entry): T1 sequence (P08173 whole entry)
In words: Positive allosteric modulation of human M4 receptor expressed in CHO cells co-expressing Gqi5 assessed as increase in acetylcholine-induced calcium mobilization relative to acetylcholine. The data set is classed as functional, cell-based.

A short description of data set [3]: Clearance in Sprague-Dawley rat plasma at 0.1 to 1 mg/kg, iv. In kind it is ADME, organism-based.
A short description of data set [4]: Elimination half life in Sprague-Dawley rat at 0.1 to 1 mg/kg, iv. The data set is classed as ADME, organism-based. The note with it: in vivo, read-out: beta t1/2 (converted).
Data set [5] in a line: Brain to plasma partition coefficient, Kp of the compound in Sprague-Dawley rat at 0.1 to 0.2 mg/kg, iv measured after 0.25 hrs. The data set is classed as ADME, organism-based.
Data set [6] can be described thus: Ratio of unbound brain to plasma concentration in Sprague-Dawley rat at 0.1 to 0.2 mg/kg, iv measured after 0.25 hrs. The data set is classed as ADME, organism-based. The note with it: read-out: K(p,uu,brain).
Data set [7] in a line: Aqueous solubility of the compound at pH 7.4. In kind it is physicochemical. To be noted: aqueous medium.
The nature of data set [8]: Oral bioavailability in dog at 10 mg/kg. The data set is classed as ADME, organism-based, Canis lupus familiaris. To be noted: in vivo.
Data set [9] is described as follows: Brain to plasma partition coefficient, Kp of the compound in rat. In kind it is ADME, cell-free.
The nature of data set [10]: Ratio of unbound brain to plasma concentration in rat. The data set is classed as ADME, cell-free.
Data set [11] deals with T3, Muscarinic acetylcholine receptor M2 (Homo sapiens, UniProt P08172).
T3 sequence (P08172 whole entry): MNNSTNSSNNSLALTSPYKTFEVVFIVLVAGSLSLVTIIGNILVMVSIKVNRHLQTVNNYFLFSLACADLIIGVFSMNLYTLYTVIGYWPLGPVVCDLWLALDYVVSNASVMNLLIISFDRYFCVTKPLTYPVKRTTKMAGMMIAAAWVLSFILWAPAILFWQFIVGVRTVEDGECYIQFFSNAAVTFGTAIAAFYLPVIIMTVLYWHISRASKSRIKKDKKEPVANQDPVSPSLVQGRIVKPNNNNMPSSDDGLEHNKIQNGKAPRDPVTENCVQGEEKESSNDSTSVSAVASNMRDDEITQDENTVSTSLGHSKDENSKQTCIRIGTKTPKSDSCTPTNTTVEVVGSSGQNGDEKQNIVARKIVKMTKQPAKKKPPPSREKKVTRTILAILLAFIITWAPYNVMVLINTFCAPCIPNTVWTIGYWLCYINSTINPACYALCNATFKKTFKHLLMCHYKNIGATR
The data set is described as follows: (§1) Positive allosteric modulation of human M2 receptor assessed as increase in acetylcholine-induced response. In kind it is functional.

The target in data set [12] is T4, Muscarinic acetylcholine receptor M2 (Homo sapiens) (UniProt P08172).
T4 sequence (whole entry): T3 sequence (P08172 whole entry)
In words: Positive allosteric modulation of human M2 receptor assessed as increase in acetylcholine-induced response relative to acetylcholine. The data set is classed as functional.

For data set [13], the target named is T4, Muscarinic acetylcholine receptor M2 (Homo sapiens). The description is as §1. The data set is classed as functional.
The next data set deals with Rattus norvegicus. The data set is described as follows: Antipsychotic activity in rat assessed as reversal of amphetamine-induced hyperlocomotion at 30 mg/kg, po. In kind it is functional.
A short description of data set [14]: Ratio of EC50 for rat M4 receptor to EC50 for human M4 receptor expressed in CHO cells co-expressing Gqi5. In kind it is cell-based.
Data set [15] deals with T5, Muscarinic acetylcholine receptor M1 (Homo sapiens, UniProt P11229).
T5 sequence (P11229 whole entry): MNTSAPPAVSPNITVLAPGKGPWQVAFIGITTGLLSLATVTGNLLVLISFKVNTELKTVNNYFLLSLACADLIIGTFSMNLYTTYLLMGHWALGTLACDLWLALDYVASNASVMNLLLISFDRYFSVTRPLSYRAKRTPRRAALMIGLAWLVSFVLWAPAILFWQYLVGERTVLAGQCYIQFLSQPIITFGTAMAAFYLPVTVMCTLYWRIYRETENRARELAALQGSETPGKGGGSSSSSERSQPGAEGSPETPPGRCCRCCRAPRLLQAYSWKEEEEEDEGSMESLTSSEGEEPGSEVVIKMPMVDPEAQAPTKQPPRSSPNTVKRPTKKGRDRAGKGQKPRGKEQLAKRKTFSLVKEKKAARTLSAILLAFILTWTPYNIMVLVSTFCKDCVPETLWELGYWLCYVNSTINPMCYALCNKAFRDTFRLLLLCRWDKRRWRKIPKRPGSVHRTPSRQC
The data set is described as follows: Positive allosteric modulation of human M1 receptor assessed as increase in acetylcholine-induced response. The data set is classed as functional.

Data set [16] has as its target Muscarinic acetylcholine receptor M3 (Homo sapiens, UniProt P20309). The data set is described as follows: Positive allosteric modulation of human M3 receptor assessed as increase in acetylcholine-induced response. In kind it is functional.
Data set [17] concerns the target T6, Muscarinic acetylcholine receptor M5 (Homo sapiens, UniProt P08912).
T6 sequence (P08912 whole entry): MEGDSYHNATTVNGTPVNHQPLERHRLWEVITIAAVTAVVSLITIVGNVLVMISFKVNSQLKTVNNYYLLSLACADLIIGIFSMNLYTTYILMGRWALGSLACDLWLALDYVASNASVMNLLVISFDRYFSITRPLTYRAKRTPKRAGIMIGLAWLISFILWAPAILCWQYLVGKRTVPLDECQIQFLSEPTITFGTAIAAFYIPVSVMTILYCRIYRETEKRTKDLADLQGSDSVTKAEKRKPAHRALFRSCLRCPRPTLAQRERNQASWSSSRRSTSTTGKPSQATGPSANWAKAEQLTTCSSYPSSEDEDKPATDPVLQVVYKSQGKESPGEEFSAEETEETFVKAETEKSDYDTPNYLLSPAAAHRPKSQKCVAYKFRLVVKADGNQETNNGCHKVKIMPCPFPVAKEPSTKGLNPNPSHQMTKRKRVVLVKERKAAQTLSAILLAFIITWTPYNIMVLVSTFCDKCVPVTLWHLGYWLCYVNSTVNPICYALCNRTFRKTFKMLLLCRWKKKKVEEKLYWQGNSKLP
The data set is described as follows: Positive allosteric modulation of human M5 receptor assessed as increase in acetylcholine-induced response. In kind it is functional.

The source made the active and inactive calls. The rule behind the calls is not given here.

The text below walks through data of ChEMBL document CHEMBL4177638, “Challenges in the development of an M4 PAM preclinical candidate: The discovery, SAR, and biological characterization of a series of azetidine-derived tertiary amides” (Bioorg Med Chem Lett, 2017).

Sequence of Muscarinic acetylcholine receptor M3 (P20309 whole entry): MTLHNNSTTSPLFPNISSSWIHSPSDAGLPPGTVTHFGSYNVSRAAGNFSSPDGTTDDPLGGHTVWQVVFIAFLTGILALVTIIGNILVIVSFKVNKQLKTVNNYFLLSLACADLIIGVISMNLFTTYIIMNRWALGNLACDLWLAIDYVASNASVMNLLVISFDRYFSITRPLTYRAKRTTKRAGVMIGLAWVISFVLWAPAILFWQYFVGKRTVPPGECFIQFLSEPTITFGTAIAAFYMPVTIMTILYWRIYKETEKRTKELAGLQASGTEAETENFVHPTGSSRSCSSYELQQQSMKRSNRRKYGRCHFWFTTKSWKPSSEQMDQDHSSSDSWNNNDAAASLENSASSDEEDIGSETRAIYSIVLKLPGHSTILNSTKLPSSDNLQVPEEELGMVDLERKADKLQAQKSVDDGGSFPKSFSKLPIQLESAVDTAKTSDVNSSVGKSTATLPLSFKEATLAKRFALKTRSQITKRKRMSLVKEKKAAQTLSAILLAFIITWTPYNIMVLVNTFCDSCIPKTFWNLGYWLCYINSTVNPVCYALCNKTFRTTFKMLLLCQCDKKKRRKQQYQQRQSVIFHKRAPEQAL

A word on the EC50: it is the midpoint of the concentration-response curve. As for `Cc1nnc2sc(C(=O)N3CC(C)(F)C3)c(N)c2c1C`, the EC50 in [1] came to 363 nM. In data set [2], the %max turned out to be 98%.

For the compound `Cc1nnc2sc(C(=O)N3CC(F)(c4cccc(F)c4)C3)c(N)c2c1C`, the EC50 in data set [1] worked out at 447 nM. Also, in data set [2], the %max was 67%.

By clearance is commonly meant the rate of elimination divided by the concentration. By Kp is commonly meant tissue or fluid exposure divided by exposure in the circulation. As a reminder, the solubility is how much of the substance goes into solution per volume. Read a low solubility as little dissolved substance. Compound `Cc1nnc2sc(C(=O)NCc3ccc(S(=O)(=O)C(F)(F)F)cc3)c(N)c2c1C` displayed a clearance in data set [3] of 1.6 mL/min/kg. In addition, the half-life in data set [4] was 2.7 h. The Kp at 0.25 h in [5] came to 0.11. Moreover, in [6], the Kp uu at 0.25 h is 1.2. In data set [7], this compound showed a solubility below 0.5 µM.

Take `Cc1nnc2sc(C(=O)N3CC(c4cccc(F)c4)C3C)c(N)c2c1C` (stereo not given): in data set [1], the EC50 is 1460 nM. In addition, the %max in [2] is 45%.

Take `COc1cccc(C2CN(C(=O)c3sc4nnc(C)c(C)c4c3N)C2)c1`: in data set [1], the EC50 was above 10000 nM.

As to `COc1ccccc1C1CN(C(=O)c2sc3nnc(C)c(C)c3c2N)C1`, in [1], the EC50 amounted to 2290 nM. Besides, the %max in [2] came to 54%.

With `CCCCC1(F)CN(C(=O)c2sc3nnc(C)c(C)c3c2N)C1`, the EC50 in data set [1] came to 316 nM. Besides, the %max in data set [2] was 85%.

For `Cc1nnc2sc(C(=O)N3CC4(CCN(c5cccnc5)C4)C3)c(N)c2c1C`, the %max in [2] is 53 to 57%.

The term bioavailability denotes dose-corrected exposure relative to a reference, in per cent. A higher bioavailability goes with good availability. Consider `Cc1nnc2sc(C(=O)NCc3ccc(S(=O)(=O)C(F)(F)F)cc3)c(N)c2c1C.Cl`, for which the bioavailability in data set [8] stood at 4.7%.

For `Cc1nnc2sc(C(=O)N3CC(c4cccc(F)c4)C3)c(N)c2c1C`, in [9], the concentration ratio (Kp) amounted to 2.1. The “K(p,uu,brain)” value in data set [10] was 0.92. In addition, the EC50 amounted to 57 nM in [1] and 2100 nM in [11]. For the same compound, the %max in data set [2] amounted to 83%; in data set [12] it was 38%.

As to `Cc1ccc(C2CN(C(=O)c3sc4nnc(C)c(C)c4c3N)C2)cc1`, the EC50 in data set [1] is 1100 nM. In addition, the %max in data set [2] stood at 82%.

For the compound `COc1ccc(C2CN(C(=O)c3sc4nnc(C)c(C)c4c3N)C2)cc1`, the concentration for a half-maximal effect (EC50) in data set [1] is 331 nM. The %max in data set [2] was 94%.

Take `Cc1nnc2sc(C(=O)N3CC(c4ccc(F)cc4)C3)c(N)c2c1C`: the partition ratio (Kp) in data set [9] came out at 2.3. In addition, the “K(p,uu,brain)” value in data set [10] stood at 1.3. Moreover, the EC50 in data set [1] amounted to 151 nM. Also, the %max in [2] was 80%. The result in data set [13] was inactive.

`Cc1cccc(C2CN(C(=O)c3sc4nnc(C)c(C)c4c3N)C2)c1`: the EC50 in [1] amounted to 851 nM. In data set [2], the %max amounted to 83%.

`COC1(c2cccc(F)c2)CN(C(=O)c2sc3nnc(C)c(C)c3c2N)C1`: the EC50 in [1] stood at 417 nM. Besides, the %max in data set [2] was 36%.

In the case of `Cc1nnc2sc(C(=O)N3CC(c4ccc(Cl)cc4)C3)c(N)c2c1C`, the 50% effective concentration (EC50) in data set [1] was above 10000 nM.

In the case of `Cc1nnc2sc(C(=O)N3CC(c4ccccc4)C3)c(N)c2c1C`, in the data set with Rattus norvegicus, the Activity is on record as 32%. Besides, the partition ratio (Kp) in data set [9] worked out at 2.6. Moreover, the Ratio EC50 in [14] came out at 2. The “K(p,uu,brain)” value in [10] turned out to be 2.1. Moreover, the concentration giving a half-maximal response (EC50) in [1] is 72 nM; in data set [15], above 10000 nM; in [11], above 10000 nM; in [16], above 10000 nM; in data set [17] it was above 10000 nM. Also, the %max in [2] was determined as 65%.

Consider `Cc1nnc2sc(C(=O)N3CC(c4cccs4)C3)c(N)c2c1C`, for which, in data set [1], the half-maximal effective concentration (EC50) came to 200 nM. In addition, in [2], the %max stood at 78%.

With `Cc1nnc2sc(C(=O)N3CC(c4ccc(Br)cc4)C3)c(N)c2c1C`, the concentration for a half-maximal effect (EC50) in data set [1] is above 10000 nM.

As to `Cc1nnc2sc(C(=O)N3CC(O)(c4ccccc4)C3)c(N)c2c1C`, the concentration giving a half-maximal response (EC50) in [1] is 1050 nM. Also, in data set [2], the %max came out at 30%.

Regarding `Cc1nnc2sc(C(=O)N3CC(C4CCCCC4)C3)c(N)c2c1C`, the Kp in data set [9] was 8.46. Further, in data set [10], the “K(p,uu,brain)” value stood at 0.71. Further, the EC50 in [1] was 178 nM. Also, in data set [2], the %max stood at 54%.

`Cc1nnc2sc(C(=O)N3CC(c4ccccc4)C3C)c(N)c2c1C` (stereo not given): the half-maximal effective concentration (EC50) in data set [1] amounted to 1510 nM. Moreover, in [2], the %max is 45%.

`Cc1ccccc1C1CN(C(=O)c2sc3nnc(C)c(C)c3c2N)C1`: the EC50 in data set [1] was 457 nM. Also, the %max in [2] is 72%.

For `Cc1nnc2sc(C(=O)N3CC(F)(c4ccccn4)C3)c(N)c2c1C`, the EC50 in data set [1] amounted to 2240 nM. Besides, the %max in data set [2] was 78%.

On to `Cc1nnc2sc(C(=O)N3CC(c4ccccc4F)C3)c(N)c2c1C`, for which the half-maximal effective concentration (EC50) in data set [1] turned out to be 407 nM. The %max in [2] was found to be 75%.
